{"source": "patent US6159501A", "about": "“Modified release multiple-units dosage composition for release of opioid compounds” (Nycomed Danmark A/S, priority 1996, dated 2000)", "key": {"[1]": {"experiment": "Test 3 (PDMO-018): adverse events", "description": "Volunteers were asked to report any changes in normal health to the investigator. The investigator recorded in the CRFs the event, date and time for onset and cessation, frequency, severity, outcome, causality, classification and any action taken.\nFurther a urine sample was screened for drug abuse and pregnancy test was performed for female volunteers. If negative drugs of abuse and pregnancy test the volunteers were challenged in the first period only with a direct i.v. injection of about 0.5 ml naloxone 0.4 mg/ml (Narcan®)."}, "[2]": {"conditions": "cited from earlier work"}}, "data": [{"smiles": "O=C1CC[C@@]2(O)[C@H]3Cc4ccc(O)c5c4[C@@]2(CCN3CC2CC2)[C@H]1O5", "note": "[naltrexone]", "values": [{"measurement": "adverse events (number)", "setting": "[1]", "value": 13, "unit": "AEs"}]}, {"smiles": "CN1CC[C@]23c4c5ccc(O)c4O[C@H]2[C@@H](O)C=C[C@H]3[C@H]1C5", "note": "[morphine]", "values": [{"measurement": "average duration of action for the first single dose", "setting": "[2]; 10 mg of oral, i.m. or s.c. morphine", "value": "4 to 5", "unit": "h"}]}, {"smiles": "CN1CC[C@]23c4c5ccc(O)c4O[C@H]2[C@@H](O[C@@H]2O[C@H](C(=O)O)[C@@H](O)[C@H](O)[C@H]2O)C=C[C@H]3[C@H]1C5", "note": "[morphine-6-glucuronide]", "values": [{"measurement": "half-life, comparison", "setting": "[2]; in vivo", "value": "longer half-life"}]}]}
